Data as given in patent US20050054018A1, “Activated checkpoint therapy and methods of use thereof” (priority 2002, published 2005).

Experiments:
DLD1 = assay: Cancer cell line IC50, DLD1; type: cell-based; details: Homo sapiens, DLD-1; read-out: Cancer Cell Lines, IC50, Colon DLD1
SW480 = assay: Cancer cell line IC50, SW480; type: cell-based; details: Homo sapiens, read-out: Cancer Cell Lines, IC50, Colon SW480
MCF-7 = assay: Cancer cell line IC50, MCF-7; type: cell-based; details: Homo sapiens, MCF7; read-out: Cancer Cell Lines, IC50, Breast MCF-7
Protocol: (§1) In this experiment, exponentially growing cells were seeded at 1000 cells/well and allowed to attach for 48 h. […] After 10-20 days, cells were fixed and stained with modified Wright-Giemsa stain.

PaCa-2 = assay: Cancer cell line IC50, PaCa-2; type: cell-based; details: Homo sapiens, read-out: Cancer Cell Lines, IC50, Pancreas PaCa-2
HT-29 = assay: Cancer cell line IC50, HT-29; type: cell-based; details: Homo sapiens, read-out: Cancer Cell Lines, IC50, Colon HT-29
NCM460 = assay: Normal cell line, NCM460; type: cell-based; details: Homo sapiens, read-out: Normal Cell Lines, Colon NCM460
MCF10A = assay: Normal cell line, MCF10A; type: cell-based; details: Homo sapiens, MCF-10A; read-out: Normal Cell Lines, Breast MCF10A
Protocol: as §1

[1] = system: human multiple myeloma (MM) cells; assay: MTT assay, multiple myeloma cells; type: cell-based; details: 4 μM, 24 h, all seven MM cell lines
[2] = system: normal human Peripheral Blood Mononuclear Cells (PBMC); assay: MTT assay, PBMC; type: cell-based; details: 0.5, 2, 4, and 8 μM, 24 h; fresh or proliferating PBMC
Protocol: Proliferating PBMC were generated by 72 h incubation with phytohemagglutinin (PHA) at 2 μg/mL.

[3] = system: human breast cancer cells (MCF-7); assay: Colony formation assay, MCF-7; type: cell-based; details: MCF-7, 4 h treatment, 2-4 μM and higher, 10-20 days
Protocol: as §1

[4] = system: normal human breast epithelial cells (MCF-10A); assay: Colony formation assay, MCF-10A; type: cell-based; details: 4 h treatment, 10-20 days
Protocol: as §1

[5] = system: human colon cancer cell line DLD1; assay: Colony formation and MTT assay, DLD1; type: cell-based; details: DLD1, 4 hour exposure, 4-5 μM
Protocol: DLD1 cells were seeded into 6-well, 96-well plates and allowed to attach overnight. […] Control cells were treated with DMSO equivalent to the highest dose of β-Lapachone used. For the colony formation assay, colonies were allowed to grow for 14 days; MT assay cells continued in culture for an additional 2 days.

[6] = system: human colon carcinoma cells (DLD1); assay: Flow cytometry sub-G1 apoptosis, DLD1; type: cell-based; details: DLD1, 2-4 μM, 24 h
Protocol: (§2) Cells were treated for 24 h, then were subjected to flow cytometric analysis after staining with propidium iodide.

[7] = system: human colon carcinoma cells (SW480); assay: Flow cytometry sub-G1 apoptosis, SW480; type: cell-based; details: SW480, 2-4 μM, 24 h
Protocol: as §2

[8] = system: normal human colon cells (NCM460); assay: Flow cytometry sub-G1 apoptosis, NCM460; type: cell-based; details: NCM460, 24 h
Protocol: as §2

cytochrome c = assay: Western blot, cytochrome c release in DLD1; type: cell-based, human
PARP = assay: Western blot, PARP cleavage; type: cell-based, human; details: after 4 hours of exposure
E2F [9] = assay: Gel mobility shift assay, DLD1 nuclear proteins; type: cell-based, human; details: DLD1, 4 μM
From the text: (§3) The arrow denotes the location of the putative E2F protein-DNA complex.

E2F [10] = assay: Gel mobility shift assay, NCM460 nuclear proteins; type: cell-based, human; details: NCM460, 4 μM, up to 2 hours
From the text: as §3

[11] = system: human prostate cancer cells (PC-3); assay: Colony survival, combination with GL331, PC-3; type: cell-based
From the text: (§4) The number of colonies in the control well (solvent-treated) was taken as 100% survival.

[12] = system: human pancreatic cancer cells (Paca-2); assay: Colony survival, combination with gemcitabine, Paca-2; type: cell-based; details: gemcitabine 5 μg/ml day 1 followed by β-lapachone 2 μM day 2
From the text: as §4

A549 = assay: Cancer cell line IC50, A549; type: cell-based; details: Homo sapiens, read-out: Cancer Cell Lines, IC50, Lung A549
[13] = system: Normal Cell Lines vs Cancer Cell Lines; assay: Fold selectivity, normal vs cancer cell lines; type: cell-based
human cancer cells = assay: Combination with Taxol, cancer cell survival in vitro; type: cell-based; details: in the presence of β-Lapachone

Compound	IC50 (DLD1)	IC50 (SW480)	IC50 (MCF-7)	IC50 (PaCa-2)	IC50 (HT-29)	IC50 (A549)	IC50 (NCM460)	IC50 (MCF10A)	Fold Selectivity [13]	other results
CC(=O)O[C@H]1C(=O)[C@@]2(C)[C@H]([C@H](OC(=O)c3ccccc3)[C@]3(O)C[C@H](OC(=O)[C@H](O)[C@@H](NC(=O)c4ccccc4)c4ccccc4)C(C)=C1C3(C)C)[C@]1(OC(C)=O)CO[C@@H]1C[C@@H]2O [Taxol®, paclitaxel]	–	–	–	–	–	–	–	–	–	reduction of effective Taxol concentration (human cancer cells): at least 10 fold
CC1(C)CCC2=C(S1)c1ccccc1C(=O)C2=O [3,4-dihydro-2,2-dimethyl-2H-naphtho[1,2-b]thiopyran-5,6-dione]	2000 nM	1500 nM	1000 nM	1500 nM	1800 nM	1700 nM	7500 nM	6700 nM	˜4.5	–

Further lines, with some results ahead:

IC50 (DLD1)	IC50 (SW480)	IC50 (MCF-7)	IC50 (PaCa-2)	IC50 (HT-29)	IC50 (A549)	Compound	IC50 (NCM460)	IC50 (MCF10A)	Fold Selectivity [13]	other results
3600 nM	3300 nM	1000 nM	1600 nM	2100 nM	–	CC1(C)CCC2=C(O1)c1ccccc1C(=O)C2=O [β-lapachone, 3,4-dihydro-2,2-dimethyl-2H-naphtho[1,2-b]pyran-5,6-dione]	8100 nM	5800 nM	–	cell viability in cultures (MTT) [1]: significantly decreased; cytotoxicity to PBMC growth (MTT) [2]: No cytotoxicity; colonies [3]: essentially complete elimination of colonies; number of colonies [4]: no reduction in the number of colonies; size of the colonies [4]: smaller; viable cells (colony formation and MTT assay) [5]: eliminates viable cells; apoptosis (sub-G1 fraction) [6]: induce apoptosis; apoptosis (sub-G1 fraction) [7]: induce apoptosis; apoptosis (sub-G1 fraction) [8]: no apoptosis; time of peak cytochrome c release (cytochrome c; DLD1): 2 h; exposure time to cytochrome c release (cytochrome c; DLD1, earliest release): 1 h; PARP cleavage (PARP): cleavage of PARP; nuclear E2F protein levels vs. starting levels (E2F [9]; 0.5 hours): increased; nuclear E2F protein levels vs. starting levels (E2F [9]; 1 hour): markedly elevated; level of E2F expression (E2F [10]): essentially unchanged; colony survival, combination with GL331 ([11]; β-lapachone 2 μM and GL331 2 μM simultaneously, 4 h): complete eradication of colony forming units; colony survival, combination with GL331 ([11]; β-lapachone 2 μM day 1 followed by GL331 2 μM day 2): complete eradication of colony forming units; colony survival, combination with gemcitabine [12]: complete eradication of colony forming units
–	–	–	1200 nM	1600 nM	1600 nM	CC1(C)CCSC2=C1C(=O)C(=O)c1ccccc12 [3,4-dihydro-4,4-dimethyl-2H-naphtho[1,2-b]thiopyran-5,6-dione]	6000 nM	6300 nM	˜4	–
1300 nM	1800 nM	1000 nM	–	–	–	CC(C)=CCC1CC2=C(OC1(C)C)c1ccccc1C(=O)C2=O (stereo not shown) [3,4-dihydro-2,2-dimethyl-3-(3-methyl-2-butenyl)-2H-naphtho[1,2-b]pyran-5,6-dione]	10000 nM	–	˜7	–
